Calls of active or inactive are those of the source. The rule behind the calls is not given here.
Assays:
[1] = Prodrug release in phosphate buffer containing L-cysteine assessed as H2S release by measuring H2S releasing half-life at 60 uM by methylene blue method; type: ADME
H9c2 = experiment: Cytotoxicity against rat H9c2 cells assessed as reduction in cell viability after 48 hrs by MTT assay; type: cell-based; details: H9c2, 48 h
HUVEC [2] = experiment: Cytotoxicity against human HUVEC cells assessed as reduction in cell viability after 48 hrs by MTT assay; type: cell-based
RAW264.7 [3] = experiment: Cytotoxicity against mouse RAW264.7 cells assessed as reduction in cell viability after 48 hrs by MTT assay; type: cell-based; details: RAW264.7, 48 h
WI-38 = experiment: Cytotoxicity against human WI38 cells assessed as reduction in cell viability after 48 hrs by MTT assay; type: cell-based; details: WI-38, 48 h
HUVEC [4] = experiment: Cytoprotective activity against ox-LDL induced cell damage in human HUVEC cells assessed as increase in cell viability at 50 uM preincubated for 10 mins followed by ox-LDL stimulation measured after 24 hrs by MTT assay; type: functional, cell-based
HUVEC [5] = experiment: Cytotoxicity against human HUVEC cells assessed as reduction in cell viability at 10 to 100 uM by MTT assay; type: cell-based; details: dose 10-100 µM
HUVEC [6] = experiment: Cytoprotective activity against ox-LDL induced cell damage in human HUVEC cells assessed as cell viability at 100 uM preincubated for 10 mins followed by ox-LDL stimulation measured after 24 hrs by MTT assay (reference value: 73.1%); type: functional; details: read-out: Activity
HUVEC [7] = experiment: Anti-atherosclerotic activity against ox-LDL induced cell damage in human HUVEC cells assessed as reduction in nuclear pyknosis and apoptotic bodies formation preincubated for 10 mins followed by ox-LDL stimulation and measured after 24 hrs by Hoechst 33342 staining based fluorescence microscopy; type: functional
HUVEC [8] = experiment: Anti-atherosclerotic activity against ox-LDL induced cell damage in human HUVEC cells assessed as reduction in late apoptotic and death cells preincubated for 10 mins followed by ox-LDL stimulation and measured after 24 hrs by PI staining based fluorescence microscopic analysis; type: functional
HUVEC [9] = experiment: Anti-atherosclerotic activity against ox-LDL induced cell damage in human HUVEC cells assessed as reduction in early apoptotic cells by measuring increase in mitochondrial membrane potential preincubated for 10 mins followed by ox-LDL stimulation and measured after 24 hrs by JC-1 staining based fluorescence microscopic analysis; type: functional
RAW264.7 [10] = experiment: Antioxidant activity in mouse RAW264.7 cells assessed as reduction in ox-LDL-induced oxidative stress by measuring increase in SOD level at 50 uM preincubated for 10 mins followed by ox-LDL stimulation and measured after 24 hrs relative to control; type: functional; parameters: scale not given: the % may be the effect or the level left
HUVEC [11] = experiment: Anti-atherosclerotic activity against ox-LDL induced apoptosis in human HUVEC cells assessed as reduction in Bax expression at 10 to 50 uM preincubated for 10 mins followed by ox-LDL stimulation and measured after 24 hrs by ELISA; type: functional, cell-based; details: dose microM 10-50, time 10.0 min
HUVEC [12] = experiment: Anti-atherosclerotic activity against ox-LDL induced apoptosis in human HUVEC cells assessed as reduction in caspase-3 expression at 10 to 50 uM preincubated for 10 mins followed by ox-LDL stimulation and measured after 24 hrs by ELISA; type: functional, cell-based; details: dose microM 10-50, time 10.0 min
HUVEC [13] = experiment: Anti-atherosclerotic activity against ox-LDL induced apoptosis in human HUVEC cells assessed as increase in bcl-2 expression at 50 uM preincubated for 10 mins followed by ox-LDL stimulation and measured after 24 hrs by ELISA; type: functional
RAW264.7 [14] = experiment: Inhibition of macrophage foam cell formation in mouse RAW264.7 cells assessed as reduction in ox-LDL induced red lipid droplets formation preincubated for 10 mins followed by ox-LDL stimulation and measured after 24 hrs by oil red O staining based inverted microscopy analysis; type: functional; details: dose microM 10-50, time 10.0 min
RAW264.7 [15] = experiment: Inhibition of macrophage foam cell formation in mouse RAW264.7 cells assessed as reduction in ox-LDL induced red lipid droplets formation at 50 uM preincubated for 10 mins followed by ox-LDL stimulation and measured after 24 hrs by oil red O staining based inverted microscopy analysis; type: functional
RAW264.7 [16] = experiment: Anti-atherosclerotic activity in mouse RAW264.7 cells assessed as decrease in ox-LDL induced intracellular lipid accumulation by measuring reduction in CE/TC ratio at 50 uM preincubated for 10 mins followed by ox-LDL stimulation and measured after 24 hrs by colorimetric method relative to control; type: functional; details: RAW264.7, 10 min
RAW264.7 [17] = experiment: Antioxidant activity in mouse RAW264.7 cells assessed as reduction in ox-LDL induced ROS accumulation at 10 to 50 uM preincubated for 10 mins followed by ox-LDL stimulation and measured after 24 hrs by DCFH-DA staining based fluorescence microscopic analysis; type: functional, cell-based; details: dose microM 10-50, time 10.0 min
RAW264.7 [18] = experiment: Antioxidant activity in mouse RAW264.7 cells assessed as reduction in ox-LDL induced oxidative stress by measuring decrease in MDA level at 50 uM preincubated for 10 mins followed by ox-LDL stimulation and measured after 24 hrs relative to control; type: functional; details: RAW264.7, 10 min
RAW264.7 [19] = experiment: Anti-inflammatory activity in mouse RAW264.7 cells assessed as decrease in ox-LDL induced inflammatory reaction by measuring decrease in TNF-alpha production preincubated for 10 mins followed by ox-LDL stimulation and measured after 24 hrs; type: functional, cell-based; details: dose microM 10-50, time 10.0 min
RAW264.7 [20] = experiment: Anti-inflammatory activity in mouse RAW264.7 cells assessed as decrease in ox-LDL induced inflammatory reaction by measuring increase in IL-10 production preincubated for 10 mins followed by ox-LDL stimulation and measured after 24 hrs; type: functional, cell-based; details: dose microM 10-50, time 10.0 min
RAW264.7 [21] = experiment: Anti-atherosclerotic activity in mouse RAW264.7 cells assessed as decrease in ox-LDL induced PI3K protein expression at 10 to 50 uM preincubated for 10 mins followed by ox-LDL stimulation and measured after 24 hrs by Western blot analysis; type: functional, cell-based; details: dose microM 10-50, time 10.0 min
RAW264.7 [22] = experiment: Anti-atherosclerotic activity in mouse RAW264.7 cells assessed as decrease in ox-LDL induced AKT protein expression at 10 to 50 uM preincubated for 10 mins followed by ox-LDL stimulation and measured after 24 hrs by Western blot analysis; type: functional, cell-based; details: dose microM 10-50, time 10.0 min
RAW264.7 [23] = experiment: Anti-atherosclerotic activity in mouse RAW264.7 cells assessed as decrease in ox-LDL induced NFkappaB protein expression at 10 to 50 uM preincubated for 10 mins followed by ox-LDL stimulation and measured after 24 hrs by Western blot analysis; type: functional, cell-based; details: dose microM 10-50, time 10.0 min
RAW264.7 [24] = experiment: Anti-atherosclerotic activity in mouse RAW264.7 cells assessed as decrease in ox-LDL induced intracellular lipid accumulation by measuring reduction in total cholesterol level at 10 to 50 uM preincubated for 10 mins followed by ox-LDL stimulation and measured after 24 hrs by colorimetric method; type: functional, cell-based; details: dose microM 10-50, time 10.0 min
RAW264.7 [25] = experiment: Anti-atherosclerotic activity in mouse RAW264.7 cells assessed as decrease in ox-LDL induced intracellular lipid accumulation by measuring reduction in free cholesterol level at 10 to 50 uM preincubated for 10 mins followed by ox-LDL stimulation and measured after 24 hrs by colorimetric method; type: functional, cell-based; details: dose microM 10-50, time 10.0 min
RAW264.7 [26] = experiment: Antioxidant activity in mouse RAW264.7 cells assessed as reduction in ox-LDL induced ROS accumulation at 10 uM preincubated for 10 mins followed by ox-LDL stimulation and measured after 24 hrs by DCFH-DA staining based fluorescence microscopic analysis; type: functional, cell-based
RAW264.7 [27] = experiment: Antioxidant activity in mouse RAW264.7 cells assessed as reduction in ox-LDL induced oxidative stress by measuring decrease in MDA level at 10 to 50 uM preincubated for 10 mins followed by ox-LDL stimulation and measured after 24 hrs; type: functional, cell-based; details: dose microM 10-50, time 10.0 min
RAW264.7 [28] = experiment: Antioxidant activity in mouse RAW264.7 cells assessed as reduction in ox-LDL induced oxidative stress by measuring increase in SOD level at 10 to 50 uM preincubated for 10 mins followed by ox-LDL stimulation and measured after 24 hrs; type: functional, cell-based; details: dose microM 10-50, time 10.0 min
RAW264.7 [29] = experiment: Anti-inflammatory activity in mouse RAW264.7 cells assessed as decrease in ox-LDL induced inflammatory reaction by measuring decrease in TNF-alpha production at 10 to 50 uM preincubated for 10 mins followed by ox-LDL stimulation and measured after 24 hrs; type: functional, cell-based; details: dose microM 10-50, time 10.0 min
RAW264.7 [30] = experiment: Anti-inflammatory activity in mouse RAW264.7 cells assessed as decrease in ox-LDL induced inflammatory reaction by measuring increase in IL-10 production at 10 to 50 uM preincubated for 10 mins followed by ox-LDL stimulation and measured after 24 hrs; type: functional, cell-based; details: dose microM 10-50, time 10.0 min
RAW264.7 [31] = experiment: Inhibition of macrophage foam cell formation in mouse RAW264.7 cells assessed as reduction in ox-LDL induced red lipid droplets formation at 10 uM preincubated for 10 mins followed by ox-LDL stimulation and measured after 24 hrs by oil red O staining based inverted microscopy analysis; type: functional
HUVEC [32] = experiment: Cytoprotective activity against ox-LDL induced cell damage in human HUVEC cells assessed as increase in cell viability at 50 to 100 uM preincubated for 10 mins followed by ox-LDL stimulation measured after 24 hrs by MTT assay; type: functional, cell-based; details: dose microM 50-100, time 10.0 min

Cc1cnc(C(=O)OCCCOC(=O)CCCCC2CCSS2)c[n+]1[O-] (configuration not stated)
t1/2 [1]: 19.8 min | IC50 (H9c2): > 800 µM | IC50 (HUVEC [2]): > 800 µM | IC50 (RAW264.7 [3]): > 800 µM | IC50 (WI-38): > 800 µM

CC(C)(Oc1ccc(Cl)cc1)C(=O)NCCOC(=S)Nc1ccccc1
t1/2 [1]: 1.4 min | IC50 (H9c2): > 800 µM | IC50 (HUVEC [2]): 791 µM | IC50 (RAW264.7 [3]): > 800 µM | IC50 (WI-38): > 800 µM

O=C(CCCCC1CCSS1)OCCCOC(=O)c1cccnc1 (configuration not stated)
Activity (HUVEC [4]): Active | Activity (HUVEC [5]): Non-Toxic | t1/2 [1]: 15.3 min | IC50 (H9c2): > 800 µM | IC50 (HUVEC [2]): > 800 µM | IC50 (RAW264.7 [3]): > 800 µM | IC50 (WI-38): > 800 µM | viability at 100 µM (HUVEC [6]): 85.9% | Activity (HUVEC [7]): Active | Activity (HUVEC [8]): Active | Activity (HUVEC [9]): Active | Activity (RAW264.7 [10]): 48.3% | Activity (HUVEC [11]): Active | Activity (HUVEC [12]): Active | Activity (HUVEC [13]): 32.7% | inhibition (RAW264.7 [14]): Dose-dependent effect | inhibition (RAW264.7 [15]): Active | inhibition at 50 µM (RAW264.7 [16]): 32.4% | Activity (RAW264.7 [17]): Active | inhibition at 50 µM (RAW264.7 [18]): 47% | Activity (RAW264.7 [19]): Dose-dependent effect | Activity (RAW264.7 [20]): Dose-dependent effect | Activity (RAW264.7 [21]): Active | Activity (RAW264.7 [22]): Active | Activity (RAW264.7 [23]): Active | Activity (RAW264.7 [24]): Active | Activity (RAW264.7 [25]): Active

Cc1ccc(NC(=S)OCCNC(=O)c2cccnc2)cc1
t1/2 [1]: 0.9 min | IC50 (H9c2): 726 µM | IC50 (HUVEC [2]): 567 µM | IC50 (RAW264.7 [3]): > 800 µM | IC50 (WI-38): > 800 µM

Cc1cnc(C(=O)Oc2ccc(C(N)=S)cc2)c[n+]1[O-]
t1/2 [1]: 3.9 min | IC50 (H9c2): 780 µM | IC50 (HUVEC [2]): 714 µM | IC50 (RAW264.7 [3]): > 800 µM | IC50 (WI-38): > 800 µM

CCOC(=O)C(C)(C)Oc1ccc(Cl)cc1
Activity (RAW264.7 [24]): Active | Activity (RAW264.7 [25]): Active | Activity (RAW264.7 [26]): inactive | Activity (RAW264.7 [27]): inactive | Activity (RAW264.7 [28]): inactive | Activity (RAW264.7 [29]): Active | Activity (RAW264.7 [30]): Active | inhibition (RAW264.7 [31]): Active

Cc1ccc(NC(=S)OCCNC(=O)C(C)(C)Oc2ccc(Cl)cc2)cc1
t1/2 [1]: 1 min | IC50 (H9c2): 771 µM | IC50 (HUVEC [2]): 661 µM | IC50 (RAW264.7 [3]): > 800 µM | IC50 (WI-38): > 800 µM

O=C(NCCOC(=S)Nc1ccc(F)cc1)c1cccnc1
t1/2 [1]: 1.5 min | IC50 (H9c2): > 800 µM | IC50 (HUVEC [2]): 692 µM | IC50 (RAW264.7 [3]): > 800 µM | IC50 (WI-38): > 800 µM

O=C(NCCOC(=S)Nc1ccc([N+](=O)[O-])cc1Cl)c1cccnc1
Activity (HUVEC [32]): Active | Activity (HUVEC [5]): Non-Toxic | t1/2 [1]: 2.1 min | IC50 (H9c2): > 800 µM | IC50 (HUVEC [2]): 701 µM | IC50 (RAW264.7 [3]): > 800 µM | IC50 (WI-38): > 800 µM

COc1ccc(NC(=S)OCCNC(=O)C(C)(C)Oc2ccc(Cl)cc2)cc1
t1/2 [1]: 0.9 min | IC50 (H9c2): 747 µM | IC50 (HUVEC [2]): 616 µM | IC50 (RAW264.7 [3]): > 800 µM | IC50 (WI-38): 780 µM
